The results in this text go back to article PMC8876511, “Two out of Three Musketeers Fight against Cancer: Synthesis, Physicochemical, and Biological Properties of Phosphino Cu^I, Ru^II, Ir^III Complexes” (Pharmaceuticals, 2022).

Holding throughout (format): cell-based, human
The test system of assay [1] is A549 cells. Kind of assay: Cell cycle analysis by PI staining, flow cytometry. The following applies: synchronized A549, various concentrations, 24 h. As to the method: Antitumor drugs induce cell cycle arrest by inhibiting DNA synthesis and enhancing DNA damage, ultimately leading cancer cells to apoptosis. We further studied the influence of Ir(III) and Ru(II) complexes on cell cycle distribution. Synchronized A549 cells were treated with Ir(III) (1a, 2a) or Ru(II) (1b, 2b) at various concentrations for 24 h. Cells were stained with propidium iodide (PI) and analyzed by flow cytometry. […] An arrest in S-phase implies that the cell cannot duplicate its DNA. Other authors recently reported a similar effect for iridium(III)polypyridyl complexes. Moreover, the percentage of the G2/M population also increases. However, higher doses (>10 μM) of Ir(III) complexes can enhance G0/G1-phase arrest.
The serum starvation protocol was used to synchronize cell cultures. A549 cells were seeded in a 12-well plate in a growth medium with 20% FBS overnight. Then, the cultures were washed by PBS and changed to a serum-free medium. After serum starvation for 24 h, cells were released into the cell cycle by the addition of serum and tested compounds solution for 24 h. The cells were then detached from the plate using trypsin. […] Cells were analyzed with the Guava® easyCyte™ flow cytometer equipped with a 488 nm laser. The obtained data were analyzed using InCyte Software (MerckMillipore, Burlington, MA, USA).

Assay [2] has as its system A549 cells. Kind of assay: Intracellular accumulation, fluorescence microscopy. The following applies: A549, 5 μM, 24 h. As to the method: It has been reported that the cellular uptake efficacy of a compound is affected by many factors, such as lipophilicity. Synthesized complexes indicate blue fluorescence. Thus, their detection using fluorescence microscopy is possible. For this purpose, A549 (human lung adenocarcinoma epithelial) cells were incubated with Ir(III) complexes (5 μM) for 24 h and analyzed. Phalloidin was co-incubated with Ir(III) complexes to determine subcellular localization further.
The intracellular accumulation of the compound was assessed in the A549 cell line. Before imaging, cells were seeded on microscopic slides at a density of 1×10^5 cells and were kept at 37 °C with 5% CO2 humidified atmosphere for 24 h. After being washed with fresh medium, the cells were incubated with 5 μM solution of tested compound in cell medium for 24 h. Next, after being washed with HBSS, the cells were fixed for 10 min in 3.8% PFA and incubated with specific intracellular organelle probes: 200 nM Mito-Tracker green, 1 μg/mL Quinacrine, and 0.25 nM of PhalloidinAtto 488 (Molecular Probes, Invitrogen Life Technologies; Thermo Fisher Scientific, Waltham, MA, USA), diluted in HBSS buffer. After 30 min incubation, at 37 °C, in the dark, the cells were washed with HBSS two times, and the slide was transferred to the microscope stage and cells were visualized under a fluorescent Zeiss Axio Observer microscope. Registered images were analyzed with the Zeiss ZEN software.

In assay [3] the test system is A549 cells. The assay can be described thus: Annexin V-FITC/PI double staining, flow cytometry. The following applies: A549, 50 μM, 24 h. As to the method: The cell death induced by selected Ir(III) and Ru(II) complexes was assessed using Annexin V-FITC/PI double staining. Based on this assay the differentiation of the following cells population was possible: viable cells (Annexin-FITC negative, PI negative), apoptotic cells (Annexin-FITC positive, PI negative), late apoptotic cells (Annexin-FITC positive and PI positive), and necrotic cells (Annexin-FITC negative, PI positive). Treatment of A549 cells with Ir(III) or Ru(II) complexes leads to a dose-dependent increase in the percentage of cells in each phase (Figure 5).
Cell death was quantified using the AnnexinV-FITC/PI double staining kit (Sigma Aldrich). The cells (1 × 10^5 per well) were cultured overnight in 12-well plates. Then, cells were treated with tested compounds for 24 h. After this time, cells were passaged, collected by centrifugation, and washed twice in Hank’s Balanced Salt Solution (HBBS). The cells were then re-suspended in 500 μL binding buffer and stained with annexin V-FITC and PI according to the manufacturer’s instructions (Sigma Aldrich). Stained A549 cells were then examined using a Guava® easyCyte™ flow cytometer equipped with a 488 nm laser. The obtained data were analyzed using InCyte software (MerckMillipore, Burlington, MA, USA).
A general note: In flow cytometry, cells or beads pass a laser one at a time.

As for `CCN(CC)C[P+](c1ccccc1)(c1ccccc1)[Ir-3]([Cl])([Cl])[C]1(C)C(C)=C(C)C(C)=C1C` [1a, Ir(η^5-Cp*)Cl2Ph2PCH2N(CH2CH3)2], the cell cycle perturbations entry in the assay with A549 cells [1] was “concentration-dependent cell cycle perturbations”. For the same compound, in the assay on A549 cells [2], the penetration into cells result is “can penetrate A549 cells” and the subcellular localization result was “signal in whole (retain within the cytoplasm) cells with relative higher intensity in the nuclei”.

“Ru(η^6-p-cymene)Cl2Ph2PCH2N(CH2CH3)2 [1b]”: the cell cycle perturbations result with A549 cells [1] was “concentration-dependent cell cycle perturbations”. Also, in the assay with A549 cells [2], the penetration into cells entry is reported as “can penetrate A549 cells” and the subcellular localization result is listed as “localize mainly in nuclei”. Besides, the “late apoptotic cells (upper right quadrant)” value in the assay with A549 cells [3] is on record as 30%.
